Laboratory results published in patent US8569267B2, “Tetracyclic tetrahydrofuran derivatives containing cyclic amine side chain” (Janssen Pharmaceutica, NV, priority 2005, dated 2013).

Tests used:
[1] = target: T1, human cloned 5-HT2A receptor, expressed in L929 cells (Homo sapiens, UniProt P28223); experiment: In vitro binding affinity for 5-HT2A receptor ([125I]R91150 radioligand binding); conditions: human cloned 5-HT2A receptor in L929 cells, [125I]R91150; for IC50: read-out: 5-HT2A pIC50 (converted)
T1 construct: expressed in transfected cells; host or cells: L929 cells
Experimental: In Vitro Binding Affinity for 5-HT2A and 5-HT2C Receptors
The interaction of the compounds of Formula (I) with 5-HT2A and 5-HT2C receptors was assessed in in vitro radioligand binding experiments. […] During the incubation, the radioligands bind to the receptor. When equilibrium of binding is reached, the receptor bound radioactivity is separated from the non-bound radioactivity, and the receptor bound activity is counted. The interaction of the test compounds with the receptors is assessed in competition binding experiments. Various concentrations of the test compound are added to the incubation mixture containing the tissue preparation and the radioligand. Binding of the radioligand will be inhibited by the test compound in proportion to its binding affinity and its concentration. The affinities of the compounds for the 5-HT2 receptors were measured by means of radioligand binding studies conducted with: (a) human cloned 5-HT2A receptor, expressed in L929 cells using [^125I]R91150 as radioligand and (b) human cloned 5-HT2C receptor, expressed in CHO cells using [^3H]mesulergine as radioligand.

[2] = target: T2, human cloned 5-HT2C receptor, expressed in CHO cells (Homo sapiens, UniProt P28335); experiment: In vitro binding affinity for 5-HT2C receptor ([3H]mesulergine radioligand binding); conditions: human cloned 5-HT2C receptor; for IC50: read-out: 5-HT2C pIC50 (converted)
T2 construct: expressed in transfected cells; host or cells: CHO cells
T2 sequence (P28335 33-458): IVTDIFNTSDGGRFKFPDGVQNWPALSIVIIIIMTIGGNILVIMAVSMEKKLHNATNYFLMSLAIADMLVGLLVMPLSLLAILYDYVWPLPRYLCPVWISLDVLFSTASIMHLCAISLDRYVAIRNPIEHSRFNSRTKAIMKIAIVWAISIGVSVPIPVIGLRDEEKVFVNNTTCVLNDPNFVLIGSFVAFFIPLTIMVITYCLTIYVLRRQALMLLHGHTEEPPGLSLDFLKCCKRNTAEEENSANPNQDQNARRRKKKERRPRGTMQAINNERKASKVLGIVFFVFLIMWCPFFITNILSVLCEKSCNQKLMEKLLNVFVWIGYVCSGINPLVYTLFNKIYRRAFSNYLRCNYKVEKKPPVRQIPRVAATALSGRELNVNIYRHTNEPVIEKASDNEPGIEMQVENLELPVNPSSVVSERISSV
Summary of the method: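 Competition radioligand binding: varying test-compound concentrations incubated with receptor preparation and radioligand to binding equilibrium. Bound radioactivity separated from free and counted; affinity inferred from concentration-dependent inhibition of radioligand binding.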

[3] = target: T3, human Dopamine D2L receptor (Homo sapiens, UniProt P14416); experiment: In vitro binding affinity for human D2L receptor ([3H]Spiperone binding); conditions: human D2L receptor-transfected CHO cell membranes; for IC50: read-out: D2L pIC50 (converted)
T3 construct: expressed in transfected cells; host or cells: CHO cells
Summary of the method: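 Membranes from CHO cells transfected with the receptor were incubated with [3H]Spiperone (diluted to 2 nmol/L before addition) and compound for 30 min at 37° C. Buffer was Tris-HCl, pH 7.7, with NaCl, CaCl2, MgCl2 and KCl, and non-specific binding was defined with 10^−6 mol/l Butaclamol. Bound radioactivity was collected by filtration, counted by scintillation, and competition curves calculated as percent specific binding.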

[4] = target: T4, NET (norepinephrine transporter) (Rattus norvegicus, UniProt Q63380); experiment: In vitro determination of NET reuptake inhibition ([3H]Nixosetine binding, rat brain cortex); conditions: rat brain cortex; for IC50: read-out: NET pIC50 (converted)
T4 construct: Cortex from rat brain was collected and homogenised; from tissue; host or cells: rat brain cortex
Summary of the method: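 Rat cortex homogenised in Tris 50 mM, NaCl 120 mM, KCl 5 mM, pH 7.4 was used for competition binding against [3H]nisoxetine. Bound radioligand was collected by filtration on GF/B filters and counted by scintillation. Percentage specific binding and competition curves were derived.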

T3 sequence (P14416 whole entry): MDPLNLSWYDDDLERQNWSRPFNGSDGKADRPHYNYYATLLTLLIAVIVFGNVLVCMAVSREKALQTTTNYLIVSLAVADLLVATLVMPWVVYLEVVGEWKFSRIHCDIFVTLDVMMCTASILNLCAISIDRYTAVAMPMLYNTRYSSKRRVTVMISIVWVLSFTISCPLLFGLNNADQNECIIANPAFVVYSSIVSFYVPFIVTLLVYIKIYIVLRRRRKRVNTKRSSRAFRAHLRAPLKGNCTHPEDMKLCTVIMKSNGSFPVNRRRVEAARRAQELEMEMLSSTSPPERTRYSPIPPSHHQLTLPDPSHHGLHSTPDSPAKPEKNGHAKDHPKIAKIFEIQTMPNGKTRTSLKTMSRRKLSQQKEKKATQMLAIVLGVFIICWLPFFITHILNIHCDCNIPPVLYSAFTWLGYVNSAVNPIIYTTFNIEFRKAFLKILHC
T4 sequence (Q63380 1-617): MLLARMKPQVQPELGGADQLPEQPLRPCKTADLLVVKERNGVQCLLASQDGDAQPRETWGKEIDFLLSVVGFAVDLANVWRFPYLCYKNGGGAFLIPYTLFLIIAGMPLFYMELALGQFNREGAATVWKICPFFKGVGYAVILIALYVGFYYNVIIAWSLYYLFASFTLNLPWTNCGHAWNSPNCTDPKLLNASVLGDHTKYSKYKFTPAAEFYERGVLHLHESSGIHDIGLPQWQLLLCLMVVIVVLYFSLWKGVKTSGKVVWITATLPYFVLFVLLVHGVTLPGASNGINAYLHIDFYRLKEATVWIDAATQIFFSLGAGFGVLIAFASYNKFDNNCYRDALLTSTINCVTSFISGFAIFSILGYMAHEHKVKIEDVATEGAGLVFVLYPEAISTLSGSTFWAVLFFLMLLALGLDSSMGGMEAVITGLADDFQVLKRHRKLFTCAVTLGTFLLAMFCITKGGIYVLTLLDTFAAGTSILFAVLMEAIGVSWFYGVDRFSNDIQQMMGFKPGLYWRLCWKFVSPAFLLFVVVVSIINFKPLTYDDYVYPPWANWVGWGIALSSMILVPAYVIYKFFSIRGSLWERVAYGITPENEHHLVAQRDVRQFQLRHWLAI
T1 sequence (P28223 whole entry): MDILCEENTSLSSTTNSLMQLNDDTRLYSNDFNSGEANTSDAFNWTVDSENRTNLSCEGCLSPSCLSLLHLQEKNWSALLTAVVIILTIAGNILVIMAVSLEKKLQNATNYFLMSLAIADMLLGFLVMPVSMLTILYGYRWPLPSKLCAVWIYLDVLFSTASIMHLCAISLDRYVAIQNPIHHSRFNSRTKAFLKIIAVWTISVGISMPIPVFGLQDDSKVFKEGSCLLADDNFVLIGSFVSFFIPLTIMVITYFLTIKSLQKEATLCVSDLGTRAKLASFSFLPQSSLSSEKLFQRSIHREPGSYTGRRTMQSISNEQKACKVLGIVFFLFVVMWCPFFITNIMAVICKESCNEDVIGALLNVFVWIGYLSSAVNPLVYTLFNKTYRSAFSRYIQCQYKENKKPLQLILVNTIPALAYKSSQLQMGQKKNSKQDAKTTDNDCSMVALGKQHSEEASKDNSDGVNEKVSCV

COc1ccc(OCC2CCN(C[C@H]3C[C@@H]4c5ccccc5Cc5ccc(F)cc5[C@@H]4O3)C2)cc1 (stereo partly shown) [Compound 25]
IC50 [1]: 1.58 nM
IC50 [2]: 4.68 nM
IC50 [3]: 6.03 nM
IC50 [4]: 2190 nM

O=C(NCc1ccc(F)cc1)N1CCN(CC2CC3c4ccccc4Cc4ccc(F)cc4C3O2)CC1 (stereo not shown) [Compound 99]
IC50 [1]: 3.16 nM
IC50 [2]: 8.13 nM
IC50 [3]: 11.5 nM
IC50 [4]: > 10000 nM

Cc1ccc(OC2CCN(CC3CC4c5ccccc5Cc5ccc(F)cc5C4O3)C2)cc1 (stereo not shown) [Compound 28]
IC50 [1]: 18.6 nM
IC50 [2]: 1.78 nM
IC50 [3]: 7.59 nM
IC50 [4]: > 10000 nM

O=C(O)C(=O)O.OCC1CCCN(C[C@H]2C[C@@H]3c4ccccc4Cc4ccc(F)cc4[C@@H]3O2)C1 (single isomer, unassigned) [Compound 149]
5-HT2A pIC50 [1]: 9.08
5-HT2C pIC50 [2]: 9.10
D2L pIC50 [3]: 8.61
NET pIC50 [4]: <5.52

Fc1ccc2c(c1)C1OC(CN3CCN(Cc4cc5ccccc5o4)CC3)CC1c1ccccc1C2 (stereo not shown) [Compound 64]
IC50 [1]: 26.3 nM
IC50 [2]: 28.8 nM
IC50 [3]: 15.5 nM
IC50 [4]: 2690 nM

CCOC(=O)CC1CN(C[C@H]2C[C@@H]3c4ccccc4Cc4ccc(F)cc4[C@@H]3O2)CCO1 (stereo partly shown) [Compound 135]
IC50 [1]: 11.2 nM
IC50 [2]: 16.6 nM
IC50 [3]: 32.4 nM
IC50 [4]: 2450 nM

O=C(C1CC1)N1CCN(C[C@H]2C[C@@H]3c4ccccc4Cc4ccc(F)cc4[C@@H]3O2)CC1 [Compound 78, [2R-(2α, 3aα, 12bβ)]cyclopropyl-[4-(11-fluoro-3,3a, 8,12b-tetrahydro-2H-1-oxa-dibenzo[e,h]azulen-2-ylmethyl)-piperazin-1-yl]-methanone.oxalate (1:1)]
IC50 [1]: 2.24 nM
IC50 [2]: 8.91 nM
IC50 [3]: 36.3 nM
IC50 [4]: > 10000 nM

CC(=O)C1(c2ccccc2)CCN(C[C@H]2C[C@@H]3c4ccccc4Cc4ccc(F)cc4[C@@H]3O2)CC1.O=C(O)C(=O)O [Compound 273]
5-HT2A pIC50 [1]: 8.48
5-HT2C pIC50 [2]: 8.24
D2L pIC50 [3]: 7.71
NET pIC50 [4]: <5

O=C(OC1CCN(CC2CC3c4ccccc4Cc4ccc(F)cc4C3O2)C1)C1CCCC1 (mixture of isomers) [Compound 14]
IC50 [1]: 4.17 nM
IC50 [2]: 3.31 nM
IC50 [3]: 3.89 nM
IC50 [4]: 1230 nM

Cc1ccc(C(=O)OC2CCN(CC3CC4c5ccccc5Cc5ccc(F)cc5C4O3)C2)cc1 (mixture of isomers) [Compound 15]
IC50 [1]: 7.94 nM
IC50 [2]: 6.31 nM
IC50 [3]: 7.41 nM
IC50 [4]: 2090 nM

O=C(c1cccs1)N1CCN(CC2CC3c4ccccc4Cc4ccc(F)cc4C3O2)CC1 (stereo not shown) [Compound 81]
IC50 [1]: 0.724 nM
IC50 [2]: 5.01 nM
IC50 [3]: 35.5 nM
IC50 [4]: > 10000 nM

Fc1ccc2c(c1)C1OC(CN3CCN(Cc4cnc(-c5ccccc5)[nH]4)CC3)CC1c1ccccc1C2 (stereo not shown) [Compound 67]
IC50 [1]: 3.16 nM
IC50 [2]: 4.27 nM
IC50 [3]: 8.51 nM
IC50 [4]: 4900 nM

OC(COc1ccc(F)cc1)CN1CCN(CC2CC3c4ccccc4Cc4ccc(F)cc4C3O2)CC1 (mixture of isomers) [Compound 57]
IC50 [1]: 7.24 nM
IC50 [2]: 17.8 nM
IC50 [3]: 18.6 nM
IC50 [4]: > 10000 nM

O=C(c1ccccc1)N1CCN(CC2CC3c4ccccc4Cc4ccc(F)cc4C3O2)CC1 (stereo not drawn) [Compound 82, [2R-(2α, 3aα, 12bβ)][4-(11-fluoro-3,3a,8,12b-tetrahydro-2H-1-oxa-dibenzo[e,h]-azulen-2-ylmethyl)-piperazin-1-yl]-phenyl-methanone.oxalate (1:1)]
IC50 [1]: 2.14 nM
IC50 [2]: 3.24 nM
IC50 [3]: 19.5 nM
IC50 [4]: > 10000 nM

O=C(O)C(=O)O.OC1CCN(CC2CC3c4ccccc4Oc4ccc(Br)cc4C3O2)CC1 (stereo not shown) [Compound 286]
5-HT2A pIC50 [1]: 8.33
5-HT2C pIC50 [2]: 7.81
D2L pIC50 [3]: 7.50
NET pIC50 [4]: <5

Fc1ccc2c(c1)[C@@H]1O[C@@H](CN3CCC4(CC3)OCCO4)C[C@@H]1c1ccccc1C2 [Compound 278]
IC50 [1]: 1.62 nM
IC50 [2]: 9.77 nM
IC50 [3]: 2.29 nM
IC50 [4]: > 10000 nM

CC(=Cc1ccccc1)CN1CCN(CC2CC3c4ccccc4Cc4ccc(F)cc4C3O2)CC1 (stereo not shown) [Compound 49]
IC50 [1]: 33.9 nM
IC50 [2]: 120 nM
IC50 [3]: 33.1 nM
IC50 [4]: 2570 nM

Fc1ccc2c(c1)[C@@H]1O[C@@H](CN3CC=CC3)C[C@@H]1c1ccccc1C2.O=C(O)C(=O)O [Compound 266]
5-HT2A pIC50 [1]: 8.09
5-HT2C pIC50 [2]: 8.42
D2L pIC50 [3]: 7.42
NET pIC50 [4]: 6.61

CCOC(=O)C1CCCCN1C(=O)C1CCN(CC2CC3c4ccccc4Cc4ccc(F)cc4C3O2)CC1 (mixture of isomers) [Compound 205]
IC50 [1]: < 10 nM
IC50 [2]: 4.47 nM
IC50 [3]: 12.6 nM
IC50 [4]: 8510 nM

N#Cc1cccc(OC2CCN(CC3CC4c5ccccc5Cc5ccc(F)cc5C4O3)C2)c1 (mixture of isomers) [Compound 29]
IC50 [1]: 7.24 nM
IC50 [2]: 3.39 nM
IC50 [3]: 14.5 nM
IC50 [4]: 8510 nM

Fc1ccc2c(c1)[C@@H]1O[C@@H](CN3CCCNCC3)C[C@@H]1c1ccccc1C2.O=C(O)C(=O)O.O=C(O)C(=O)O [Compound 267]
5-HT2A pIC50 [1]: 7.84
5-HT2C pIC50 [2]: 7.65
D2L pIC50 [3]: 6.81
NET pIC50 [4]: 5.10

COC(CNC(=O)N1CCN(CC2CC3c4ccccc4Cc4ccc(F)cc4C3O2)CC1)OC (stereo not shown) [Compound 91]
IC50 [1]: 1.15 nM
IC50 [2]: 14.8 nM
IC50 [3]: 37.2 nM
IC50 [4]: 4070 nM

O=C(Nc1cccc2cnccc12)C1CCN(CC2CC3c4ccccc4Cc4ccc(F)cc4C3O2)CC1 (stereo not shown) [Compound 192]
IC50 [1]: < 10 nM
IC50 [2]: 3.8 nM
IC50 [3]: 11.2 nM
IC50 [4]: 7410 nM

Fc1ccc2c(c1)C1OC(CN3CCCC(C4=NCCN4)C3)CC1c1ccccc1C2 (stereo not shown) [Compound 171]
IC50 [1]: 28.2 nM
IC50 [2]: 18.2 nM
IC50 [3]: 282 nM
IC50 [4]: 1410 nM

Fc1ccc2c(c1)C1OC(CN3CCN(CC=Cc4ccccc4)CC3)CC1c1ccccc1C2 (stereo not shown) [Compound 48]
IC50 [1]: 30.9 nM
IC50 [2]: 32.4 nM
IC50 [3]: 9.55 nM
IC50 [4]: 2090 nM

O=S(=O)(c1ccccc1)N1CCN(CC2CC3c4ccccc4Cc4ccc(F)cc4C3O2)CC1 (stereo not shown) [Compound 106]
IC50 [1]: 16.6 nM
IC50 [2]: 61.7 nM
IC50 [3]: 44.7 nM
IC50 [4]: 9550 nM

O=C(C1CCCO1)N1CCN(CC2CC3c4ccccc4Cc4ccc(F)cc4C3O2)CC1 (mixture of isomers) [Compound 80]
IC50 [1]: 1.07 nM
IC50 [2]: 16.6 nM
IC50 [3]: 44.7 nM
IC50 [4]: 3720 nM

COc1ccc(C)c(NC(=O)C2CCN(CC3CC4c5ccccc5Cc5ccc(F)cc5C4O3)CC2)c1 (stereo not shown) [Compound 191]
IC50 [1]: < 10 nM
IC50 [2]: 3.47 nM
IC50 [3]: 11.7 nM
IC50 [4]: 9120 nM

OC(COCc1ccco1)CN1CCN(CC2CC3c4ccccc4Cc4ccc(F)cc4C3O2)CC1 (mixture of isomers) [Compound 55]
IC50 [1]: 2.69 nM
IC50 [2]: 3.16 nM
IC50 [3]: 8.13 nM
IC50 [4]: 1820 nM

COCCC1CN(C[C@H]2C[C@@H]3c4ccccc4Cc4ccc(F)cc4[C@@H]3O2)CCO1 (stereo partly shown) [Compound 130]
IC50 [1]: < 10 nM
IC50 [2]: 5.37 nM
IC50 [3]: 21.9 nM
IC50 [4]: 3550 nM

OC1(c2ccc(F)cc2)CCN(CC2CC3c4ccccc4Cc4ccc(F)cc4C3O2)C1 (mixture of isomers) [Compound 41]
IC50 [1]: 1.82 nM
IC50 [2]: 2.29 nM
IC50 [3]: 4.27 nM
IC50 [4]: 7080 nM
